Values after ≈ are worked out from the molar mass of the structure shown. “Also recorded” adds a separate entry of the source. Where a SMILES comes first, the peptide text is derived from it. Where no end group is shown, it is not given here.
Assays:
A(H1N1) virus [1] = type: cell-based; settings: virus pretreated 45 min, attached to MDCK cells 1 h
A(H1N1) virus [2] = type: cell-based, A/Hong Kong/415742M/2009(H1N1)
A(H1N1) virus [3] = system: A(H1N1) virus
S protein of SARS-CoV-2 = S protein of SARS-CoV-2 (Severe acute respiratory syndrome coronavirus 2, UniProt P0DTC2); type: binding
[4] = target: Spike of SARS-CoV-2 / ACE2-human (Severe acute respiratory syndrome coronavirus 2, UniProt P0DTC2); type: cell-based, SARS-CoV-2 / human
MDCK cells = assay: Cytotoxicity assay (MTT)
turkey red blood cells = settings: normalized to Triton X-100
SARS-CoV-2 [5] = system: SARS-CoV-2
SARS-CoV-2 [6] = type: cell-based, human
SARS-CoV = system: SARS-CoV; set-up: species or system BALB/c mice; settings: in vivo
[7] = system: coronavirus or influenza virus; settings: oral inoculation or intraperitoneal injection (refs 29, 30, 39, 41); cited from earlier work
A(H1N1) virus [8] = system: A(H1N1) virus; set-up: species or system BALB/c mice; settings: in vivo
SARS-CoV-2 [9] = type: cell-based
SARS-CoV-2 [10] = settings: in vivo
SARS-CoV-2 [11] = settings: cited from earlier work

Triton X-100
viral attachment to cells (RNA copies of attached virus) (A(H1N1) virus [1]): significantly reduced

CC[C@H](C)[C@H](NC(=O)[C@H](C)NC(=O)CNC(=O)[C@H](CC(N)=O)NC(=O)[C@H](CO)NC(=O)[C@H](Cc1ccccc1)NC(=O)[C@H](CCCNC(=N)N)NC(=O)[C@H](Cc1c[nH]cn1)NC(=O)[C@H](CS)NC(=O)[C@H](CCC(N)=O)NC(=O)[C@H](CO)NC(=O)[C@H](CC(=O)O)NC(=O)[C@H](Cc1c[nH]c2ccccc12)NC(=O)[C@H](CCCNC(=N)N)NC(=O)CNC(=O)[C@H](CC(N)=O)NC(=O)[C@@H](NC(=O)[C@@H](N)Cc1ccccc1)[C@@H](C)CC)C(=O)N[C@@H](C)C(=O)N[C@@H](CS)C(=O)N[C@@H](C)C(=O)O [U4] (H-FINGRWDSQCHRFSNGAIACA-OH; N-terminus and C-terminus assumed)
antiviral activity against A(H1N1) virus compared with Urumin (A(H1N1) virus [2]): more potent antiviral activity than that of Urumin
IC50 against A(H1N1) virus (A(H1N1) virus [3]): 6.6 µg/mL (≈ 2.8 µM)

IPLRGAFINGRWDSQCHRFS [U5]
binding to S protein of SARS-CoV-2 (S protein of SARS-CoV-2): bound to S protein
effect of U5 on P16 binding to S protein (S protein of SARS-CoV-2): reduced P16 binding to S protein; also recorded: blocked P16 binding to S protein
spike-ACE2 mediated cell fusion [4]: did not inhibit spike-ACE2 mediated fusion
antiviral activity against A(H1N1) virus compared with Urumin (A(H1N1) virus [2]): more potent antiviral activity than that of Urumin
IC50 against A(H1N1) virus (A(H1N1) virus [3]): 12.9 µg/mL

CO/C1=C\C(C)=C\[C@@H](C)[C@@H](O)[C@@H](C)C/C(C)=C/C=C/[C@H](OC)[C@@H]([C@@H](C)[C@@H](O)[C@H](C)[C@@]2(O)C[C@@H](O)[C@H](C)[C@@H](C(C)C)O2)OC1=O [bafilomycin A1]
spike-ACE2 mediated cell fusion [4]: fusion inhibition

RGAHIKGRWKSRCHRF [P16, RGAHIKGRWKSRCHRF]
IC50 against A(H1N1) virus (A(H1N1) virus [3]): 3.9 µg/mL
IC50 against FluB (FluB): 7.1 µg/mL
cytotoxicity on MDCK cells (MDCK cells; MDCK cells treated by 1 mg ml^−1 of P16): no significant cytotoxicity
TC50 (MDCK cells; MDCK cells, MTT, 24 h): > 1000 µg/mL
hemolysis of turkey red blood cells (turkey red blood cells): no significant hemolysis
IC50 against A(H3N2) (A(H3N2)): 1.6 µg/mL
IC50 for SARS-CoV-2 B.1.1.63 (SARS-CoV-2 [5]): 3.0 µg/mL
IC50 for SARS-CoV-2 B.1.617.2 (SARS-CoV-2 [5]): 3.9 µg/mL
IC50 for SARS-CoV-2 HKU001a (SARS-CoV-2 [5]): 2.9 µg/mL

CCN(CC)CCCC(C)Nc1ccnc2cc(Cl)ccc12 (stereo not drawn) [chloroquine]
SARS-CoV-2 replication in ex vivo human lung tissues (SARS-CoV-2 [6]): significantly inhibited SARS-CoV-2 replication
SARS-CoV replication in mouse lungs, atomization inhalation (SARS-CoV): could inhibit; also recorded: inhibited
1-day prophylactic activity against SARS-CoV replication (SARS-CoV; mouse): could not provide 1-day prophylactic activity
inhibition of SARS-CoV replication, one dose before viral inoculation (SARS-CoV; mouse): 3-5 fold
coronavirus or influenza virus replication in vivo after systemic administration [7]: could not inhibit coronavirus or influenza virus replication in vivo
A(H1N1) virus replication in mouse lungs (in words) (A(H1N1) virus [8]): inhibited A(H1N1) virus replication
A(H1N1) virus replication in mouse lungs, atomization inhalation (A(H1N1) virus [8]): could inhibit; also recorded: inhibited
1-day prophylactic activity against A(H1N1) virus replication (A(H1N1) virus [8]; mouse): could not provide 1-day prophylactic activity
inhibition of A(H1N1) virus replication in mice (A(H1N1) virus [8]; mouse): 3.5 fold
inhibition of A(H1N1) virus replication, one dose before viral inoculation (A(H1N1) virus [8]; mouse): 3-5 fold
antiviral activity when cells treated before or after infection (SARS-CoV-2 [9]): significantly less antiviral activity
viral replication when treated during viral infection (SARS-CoV-2 [9]): effectively inhibit viral replication; also recorded: more effectively inhibited viral replication
SARS-CoV-2 replication in hamster lungs (in words) (SARS-CoV-2 [10]): inhibited SARS-CoV-2 replication
inhibition of SARS-CoV-2 replication in hamster lungs (SARS-CoV-2 [10]): 2 fold
SARS-CoV-2 replication in Calu-3 cells (reference 24) (SARS-CoV-2 [11]): cannot inhibit SARS-CoV-2 replication

Source: patent US20240148820A1 (priority 2021, published 2024)
